Key:
glucagon receptor (GCGR) = target: T1, glucagon receptor (GCGR) (Homo sapiens, UniProt P47871); experiment: Glucagon cAMP inhibition assay (Cisbio cAMP Dynamic 2 HTRF); type: cell-based; conditions: GCGR overexpressed CHO-K1 cells or human primary hepatocytes (not specified); glucagon at EC50
T1 construct: expressed in transfected cells; host or cells: CHO-K1
How it was run: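 GCGR-overexpressing CHO-K1 cells or human primary hepatocytes in HBSS with 0.1% BSA and 800 nM IBMX, pre-incubated 30 min with compound (1% DMSO final), then stimulated 30 min at room temperature with glucagon at its EC50. cAMP measured by HTRF after 60 min lysis; IC50 from non-linear regression.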

GCGR = GCGR (Homo sapiens, UniProt P47871); experiment: I125-glucagon binding assay (competition, GCGR membrane fractions); set-up: expressed in transfected cells; host or cells: CHO-K1; conditions: competition with I125-glucagon 0.0625 nM; membrane fractions from GCGR overexpressed CHO-K1 cells
How it was run: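 Membranes from CHO-K1 cells overexpressing GCGR (7.5 µg/well) were preincubated 5 min with serially diluted compound in 50 mM Tris pH 7.4, 0.5% BSA. I125-glucagon was then added at 0.0625 nM final and incubated 30 min at 25 °C. After filtration, bound radioactivity was counted and IC50 derived by non-linear regression.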

Sequence of GCGR (P47871 26-477, species assumed): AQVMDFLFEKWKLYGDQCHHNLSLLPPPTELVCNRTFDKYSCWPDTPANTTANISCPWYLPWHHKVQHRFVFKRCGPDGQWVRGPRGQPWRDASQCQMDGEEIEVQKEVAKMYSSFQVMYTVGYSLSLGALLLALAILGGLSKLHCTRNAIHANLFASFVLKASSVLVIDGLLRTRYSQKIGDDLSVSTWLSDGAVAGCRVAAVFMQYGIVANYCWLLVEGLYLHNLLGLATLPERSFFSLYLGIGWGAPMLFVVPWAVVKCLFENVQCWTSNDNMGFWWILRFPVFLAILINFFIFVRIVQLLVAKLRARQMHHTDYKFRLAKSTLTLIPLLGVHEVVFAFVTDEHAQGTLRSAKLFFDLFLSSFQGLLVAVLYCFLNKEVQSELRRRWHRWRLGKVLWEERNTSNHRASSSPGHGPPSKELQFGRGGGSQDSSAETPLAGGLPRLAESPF
T1 sequence (P47871 26-477, species assumed): as above

Row | IC50 (glucagon receptor (GCGR)) [nM] | IC50 (GCGR) [nM] | Compound
1 | 147 | 616 | CCCCC(Nc1ccc(C(=O)NCCC(=O)OC)cc1)c1ccc(-c2noc(-c3ccccc3)n2)cc1 (stereo not shown) [Compound 2-32, methyl 3-(4-((1-(4-(5-phenyl-1,2,4-oxadiazol-3-yl)phenyl)pentyl)amino)benzamido)propanoate]
2 | 142 | > 30000 | CCCCC(Nc1ccc(C(=O)NCCC(=O)OCC)cc1)c1ccc(-c2nnc(C(F)(F)F)o2)cc1 (stereo not shown) [Compound 1-33, ethyl 3-(4-((1-(4-(5-(trifluoromethyl)-1,3,4-oxadiazol-2-yl)phenyl)pentyl)amino)benzamido)propanoate]
3 | 113 | 1220 | COC(=O)CCNC(=O)c1ccc(NC(c2ccc(-c3nnc(-c4ccccc4)o3)cc2)C(C)C)cc1 (stereo not shown) [Compound 1-2, Methyl 3-(4-((2-methyl-1-(4-(5-phenyl-1,3,4-oxadiazol-2-yl)phenyl)propyl)amino)benzamido)propanoate]
4 | 46 | 876 | CCOC(=O)CCNC(=O)c1ccc(N[C@H](c2ccc(-c3nc(-c4ccccc4)no3)cc2)C(C)CC)cc1 (stereo partly drawn) [Compound 5-5, ethyl 3-(4-(((1S)-2-methyl-1-(4-(3-phenyl-1,2,4-oxadiazol-5-yl)phenyl)butyl)amino)benzamido)propanoate]
5 | 312 | 126 | CCCCC(Nc1ccc(C(=O)NCCC(=O)O)cc1)c1ccc(-c2noc(-c3cccs3)n2)cc1 (stereo not shown) [Compound 2-13, 3-(4-((1-(4-(5-(thiophen-2-yl)-1,2,4-oxadiazol-3-yl)phenyl)pentyl)amino)benzamido)propanoic acid]
6 | 2540 | 339 | CCCC[C@H](Nc1ccc(C(=O)NCCC(=O)O)cc1)c1ccc(-c2nnc(-c3ccccn3)o2)cc1 [Compound 1-45, (S)-3-(4-((1-(4-(5-(pyridin-2-yl)-1,3,4-oxadiazol-2yl)phenyl)pentyl)amino)benzamido)propanoic acid]
7 | 311 | 963 | CCOC(=O)CCNC(=O)c1ccc(C(Nc2ccc(-c3nnc(-c4ccccc4)o3)cc2)C(C)CC)cc1 (stereo not shown) [Compound 3-5, ethyl 3-(4-(2-methyl-1-((4-(5-phenyl-1,3,4-oxadiazol-2-yl)phenyl)amino)butyl)benzamido)propanoate]
8 | 292 | 2110 | CCOC(=O)CCNC(=O)c1ccc(C(Oc2ccc(-c3nc4ccccc4s3)cc2)C(C)C)cc1 (stereo not shown) [Compound 7-3, Ethyl 3-(4-(1-(4-(benzo[d]thiazol-2-yl)phenoxy)-2-methylpropyl)benzamido)propanoate]
9 | 65 | 308 | CCOC(=O)CCNC(=O)c1ccc(N[C@H](c2ccc(-c3nc4ccccc4o3)cc2)C2CCCC2)cc1 [Compound 4-23, ethyl (S)-3-(4-(((4-(benzo[d]oxazol-2-yl)phenyl)(cyclopentyl)methyl)amino)benzamido)propanoate]
10 | 2730 | 82 | CCC(C)[C@@H](Nc1ccc(C(=O)NCCC(=O)O)cc1)c1ccc(-c2nnc(-c3ccccc3)o2)cc1 (stereo partly drawn) [Compound 1-50, 3-(4-(((1R)-2-methyl-1-(4-(5-phenyl-2,3,4-oxadiazol-2-yl)phenyl)butyl)amino)benzamido)propanoic acid]
11 | 338 | 217 | CCOC(=O)CCNC(=O)c1ccc(N[C@@H](c2ccc(-c3noc(-c4ccccc4)n3)cc2)C(C)CC)cc1 (stereo partly drawn) [Compound 2-20, ethyl 3-(4-(((1R)-2-methyl-1-(4-(5-phenyl-1,2,4-oxadiazol-3-yl)phenyl)butyl)amino)benzamido)propanoate]
12 | 159 | 246 | CCOC(=O)CCNC(=O)c1ccc(C(Nc2ccc(-c3nnc(-c4ccc(F)cc4)o3)cc2)C(C)CC)cc1 (stereo not shown) [Compound 3-7, ethyl 3-(4-(1-((4-(5-(4-fluorophenyl)-1,3,4-oxadiazol-2-yl)phenyl)amino)-2-methylbutyl)benzamido)propanoate]
13 | 88 | > 30000 | CCOC(=O)CCNC(=O)c1ccc(NC(c2ccc(-c3nnc(C(F)(F)F)o3)cc2)C(C)CC)cc1 (stereo not shown) [Compound 1-31, ethyl 3-(4-((2-methyl-1-(4-(5-(trifluoromethyl)-1,3,4-oxadiazol-2-yl)phenyl)butyl)amino)benzamido)propanoate]
14 | 28 | 1530 | COC(=O)CCNC(=O)c1ccc(N[C@H](c2ccc(-c3nnc(-c4ccccc4)o3)cc2)C(C)C)cc1 [Compound 1-63, methyl (S)-3-(4-((2-methyl-1-(4-(5-phenyl-1,3,4-oxadiazol-2-yl)phenyl)propyl)amino)benzamido)propanoate]
15 | 651 | 20 | CC(C)[C@H](Nc1ccc(C(=O)NCCC(=O)O)cc1)c1ccc(-c2nc3ccccc3o2)cc1 [Compound 4-7, (S)-3-(4-((1-(4-(benzo[d]oxazol-2-yl)phenyl)-2-methylpropyl)amino)benzamido)propanoic acid]
16 | > 30000 | 702 | CCCC[C@@H](Nc1ccc(C(=O)NCCC(=O)O)cc1)c1ccc(-c2nnc(-c3ccccn3)o2)cc1 [Compound 1-46]
17 | 391 | > 30000 | CC(C)C[C@H](Nc1ccc(C(=O)NCCC(=O)O)cc1)c1ccc(-c2noc(-c3ccccc3)n2)cc1 [Compound 2-43, (S)-3-(4-((3-methyl-1-(4-(5-phenyl-1,2,4-oxadiazol-3-yl)phenyl)butyl)amino)benzamido)propanoic acid]
18 | 33.9 | 6170 | CCCC[C@H](Nc1ccc(C(=O)NCCC(=O)OCC)cc1)c1ccc(-c2nnc(C(F)(F)F)o2)cc1 [Compound 1-51, ethyl (S)-3-(4-((1-(4-(5-(trifluoromethyl)-1,3,4-oxadiazol-2-yl)phenyl)pentyl)amino)benzamido)propanoate]
19 | > 30000 | 651 | CCCC(Nc1ccc(C(=O)NCCC(=O)O)cc1)c1ccc(-c2nnc(C(F)(F)F)o2)cc1 (stereo not shown) [Compound 1-8, 3-(4-((1-(4-(5-(Trifluoromethyl)-1,3,4-oxadiazol-2-yl)phenyl)butyl)amino)benzamido)propanoic acid]
20 | 138 | 1020 | CCCC[C@@H](Nc1ccc(C(=O)NCCC(=O)O)cc1)c1ccc(-c2noc(-c3ccccn3)n2)cc1 [Compound 2-40, (R)-3-(4-((1-(4-(5-(pyridin-2-yl)-1,2,4-oxadiazol-3-yl)phenyl)pentyl)amino)benzamido)propanoic acid]
21 | 240 | 2900 | CCOC(=O)CCNC(=O)c1ccc(NC(c2ccc(-c3noc(C(C)(C)C)n3)cc2)C(C)C)cc1 (stereo not shown) [Compound 2-1, ethyl 3-(4-((1-(4-(5-(tert-butyl)-1,2,4-oxadiazol-3-yl)phenyl)-2-methylpropyl)amino)benzamido)propanoate]
22 | 2220 | 34 | CC(C)C(Nc1ccc(C(=O)NCCC(=O)O)cc1)c1ccc(-c2nc3ccccc3o2)cc1 (stereo not shown) [Compound 4-3, 3-(4-((1-(4-(benzo[d]oxazol-2-yl)phenyl)-2-methylpropyl)amino)benzamido)propanoic acid]
23 | 245 | 673 | CCOC(=O)CCNC(=O)c1ccc(N[C@@H](c2ccc(-c3noc(-c4ccccc4)n3)cc2)C(C)C)cc1 [Compound 2-22, ethyl (R)-3-(4-((2-methyl-1-(4-(5-phenyl-1,2,4-oxadiazol-3-yl)phenyl)propyl)amino)benzamido)propanoate]
